From patent publication US10238642B2, “Methods for treating neurogenic orthostatic hypotension” (Theravance Biopharma R&D IP, LLC, priority 2016, dated 2019)

Tests used:
[1] = Plasma protein binding, rat; type: in vitro ADME
[2] = Plasma protein binding, human; type: in vitro ADME
rat native NET [3] = target: T1, rat native NET (Rattus norvegicus, UniProt Q9WTR4); assay: [3H]-nisoxetine radioligand binding, rat cortical membranes; conditions: mean (95% confidence intervals), read-out: Transporter Binding: pKi, NET (converted)
T1 construct: other: Rat cortical membranes; mean (95% confidence intervals)
T1 sequence (Q9WTR4 1-597): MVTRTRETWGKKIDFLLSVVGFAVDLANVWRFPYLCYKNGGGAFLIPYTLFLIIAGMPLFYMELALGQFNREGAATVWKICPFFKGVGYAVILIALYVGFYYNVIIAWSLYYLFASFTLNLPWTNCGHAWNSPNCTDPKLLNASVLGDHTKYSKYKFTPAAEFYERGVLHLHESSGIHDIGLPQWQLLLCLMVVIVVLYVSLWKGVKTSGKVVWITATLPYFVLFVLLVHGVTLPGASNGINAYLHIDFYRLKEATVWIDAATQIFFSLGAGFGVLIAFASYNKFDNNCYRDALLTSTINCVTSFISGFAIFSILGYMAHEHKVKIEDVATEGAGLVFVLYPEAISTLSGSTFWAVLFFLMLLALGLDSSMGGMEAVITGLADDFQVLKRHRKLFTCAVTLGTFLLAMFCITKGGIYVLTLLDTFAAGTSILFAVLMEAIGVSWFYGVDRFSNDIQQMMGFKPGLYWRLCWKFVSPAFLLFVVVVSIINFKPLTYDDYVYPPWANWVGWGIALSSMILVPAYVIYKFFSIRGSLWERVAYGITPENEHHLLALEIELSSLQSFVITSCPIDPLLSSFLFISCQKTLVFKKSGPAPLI
Text: (§1) The in vitro pharmacology of 4-[2-(2,4,6-trifluorophenoxymethyl)phenyl]-piperidine at human recombinant and rat native monoamine transporters was characterized as described in Smith et al., Inter. J. Neuropsychopharmcol. (2015) 1-11; and Tsuruda et al., J. Pharmacol. Toxicol. Meth. (2010) 61:192-204. See also, e.g., U.S. Pat. No. 8,304,432 B2 and U.S. Pat. No. 8,304,433 B2. Radioligands were sourced commercially (Perkin Elmer LifeSciences or GE Healthcare Life Sciences).
(§2) Briefly, membranes prepared from HEK293 (Human Embryonic Kidney 293) or CHO-K1 (Chinese Hamster Ovary-K1) cells stably transfected with human recombinant SERT (HEK293-hSERT), NET (HEK293-hNET), or DAT (CHO-KT-hDAT) were incubated for 1 hr at 22° C. in the absence, or presence, of 4-[2-(2,4,6-trifluorophenoxymethyl)phenyl]piperidine and [^3H]-citalopram (1.0 nM) for SERT, [^3H]-nisoxetine (2.0 nM) for NET, and [^3H]-WIN35428 (3.0 nM) for DAT in 50 mM Tris-HCl, 120 mM NaCl, 5 mM KCl, 0.025% BSA, 100 μM ascorbic acid, pH 7.4. Rat cortical membrane preparations were incubated with [^3H]-citalopram (2.0 nM) for SERT or [3H]-nisoxetine (4.0 nM) for NET for 1 hr at 22° C. […] Binding and uptake assays were terminated by rapid filtration and radioactivity determined by liquid scintillation spectroscopy.

[4] = Rat oral pharmacokinetics, one-compartment model; type: in vivo; conditions: estimate (% CV)
Description: Adult male Sprague Dawley rats (Charles River) were housed under controlled laboratory conditions (temperature at 21±1° C.) on a 12:12 hour light-dark cycle. Animals were given free access to food and water upon arrival to the facility and animals were acclimatized to their holding room for at least 48 hours. Animals were fasted but allowed free access to water for 15-18 hours prior to dosing.
Rats (n=6/timepoint/dose level) received a single oral dose of 4-[2-(2,4,6-trifluorophenoxymethyl)phenyl]piperidine (0.3, 1, 5, 10, 30, and 60 mg/kg) and were euthanized by decapitation at specified time points (0.5, 2, 4, 6, and 8 hr for 5 mg/kg dose level; 2 hr for 0.3, 1, 10, 30, and 60 mg/kg dose levels) post-administration. Spinal cords were dissected for ex vivo transporter occupancy and PK assessments from the same animals. The spinal cord was harvested by hydraulic extrusion using phosphate-buffered saline, and the lumbar segment dissected and frozen on dry ice. The remaining spinal cord segments were collected and homogenized in water (25% w/w) for PK analysis. All samples were stored at −80° C. until analysis.
A kinetic radioligand binding assay was used to determine NET and SERT occupancy in rat spinal cord, as described previously in Bourdet et al., J. Pharm. Exp. Ther. (2012) 341:137-145. PK/PD parameters were estimated by a compartmental modeling approach (WinNonlin Version 5.0.1, Pharsight Corporation). One- and two-compartment PK models with first-order absorption and elimination were evaluated. The one-compartment model was selected. The pharmacodynamics model was an effect compartment Emax model linked directly to the central PK compartment (WinNonlin PK Model 3, PD Model 101). Selection of models was based upon best fit in terms of visual inspection, Akaike Information Criteria, and weighted residual sum of squares using the Gauss-Newton minimization method.

rat native NET [5] = assay: [3H]-NE uptake inhibition in rat cortical synaptosomes; type: biochemical
Text: as §1, §2

CYP1A2 = target: T2, CYP1A2 (Homo sapiens, UniProt P05177); conditions: cited from earlier work
T2 sequence (P05177 1-516): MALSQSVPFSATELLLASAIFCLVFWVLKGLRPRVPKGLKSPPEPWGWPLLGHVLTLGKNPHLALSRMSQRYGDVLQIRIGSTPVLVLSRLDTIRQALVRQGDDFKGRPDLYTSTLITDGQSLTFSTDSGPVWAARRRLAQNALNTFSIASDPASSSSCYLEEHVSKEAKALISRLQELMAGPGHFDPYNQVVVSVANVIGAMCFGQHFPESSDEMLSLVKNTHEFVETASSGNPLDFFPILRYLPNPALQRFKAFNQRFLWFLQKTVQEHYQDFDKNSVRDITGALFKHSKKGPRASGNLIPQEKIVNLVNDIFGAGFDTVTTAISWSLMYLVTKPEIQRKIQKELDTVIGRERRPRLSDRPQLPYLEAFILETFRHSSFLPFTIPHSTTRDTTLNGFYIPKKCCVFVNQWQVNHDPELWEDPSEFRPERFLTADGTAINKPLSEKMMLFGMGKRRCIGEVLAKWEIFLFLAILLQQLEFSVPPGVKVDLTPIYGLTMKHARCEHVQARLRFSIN

Compound `Fc1cc(F)c(OCc2ccccc2C2CCNCC2)c(F)c1` [4-[2-(2,4,6-trifluorophenoxymethyl)phenyl]piperidine] has a fraction unbound [1] of 0.098, a fraction unbound [2] of 0.209 and a Ki (rat native NET [3]) of 2 nM. The “V/F (volume of the central compartment divided by oral bioavailability)” value [4] was 54.8 (66) L/kg, the “k01 (first-order absorption rate constant)” value [4] was 0.777 (108) hr^−1 and the “k10 (elimination rate constant from the central compartment)” value [4] was 0.319 (81) hr^−1. For the same compound, the “apparent functional selectivity for NET over SERT” value (rat native NET [5]) was 10 fold and the “reduction of metabolism by chemical inhibition of CYP1A2” value (CYP1A2) was 25%.
